Data: patent US8722849B2, “Polypeptides” (Novo Nordisk A/S, priority 2011, dated 2014)
≈ marks a conversion by molar mass, not a printed value. Like-named read-outs stand apart in the source and are kept apart here. Starred links: 1 amine or outer side, 2 acyl side, 3 side chain; linkers in the order of their positions; H or OH if unused. Positions of bridges follow the written chain, without caps; N, C: chain ends. Residues, ends and D or L forms follow the SMILES beside them. *: point of attachment. C20 diacid = O=C(O)CCCCCCCCCCCCCCCCCCC(=O)*; γGlu = O=C(O)[C@H](CCC(=O)[*:2])N[*:1]

How the values were obtained:
[1] = target: T1, human amylin receptor (amylin 3(a) receptor: human calcitonin receptor + RAMP-3) (Homo sapiens, UniProt O60896+P30988); experiment: Assay (II)a functional CRE-luciferase assay, human amylin receptor; format: cell-based; settings: Table 2; BHK amylin 3(a)-receptor/CRE-luc cells
T1 construct: expressed in transfected cells; host or cells: BHK570
T1 sequence (P30988 25-474): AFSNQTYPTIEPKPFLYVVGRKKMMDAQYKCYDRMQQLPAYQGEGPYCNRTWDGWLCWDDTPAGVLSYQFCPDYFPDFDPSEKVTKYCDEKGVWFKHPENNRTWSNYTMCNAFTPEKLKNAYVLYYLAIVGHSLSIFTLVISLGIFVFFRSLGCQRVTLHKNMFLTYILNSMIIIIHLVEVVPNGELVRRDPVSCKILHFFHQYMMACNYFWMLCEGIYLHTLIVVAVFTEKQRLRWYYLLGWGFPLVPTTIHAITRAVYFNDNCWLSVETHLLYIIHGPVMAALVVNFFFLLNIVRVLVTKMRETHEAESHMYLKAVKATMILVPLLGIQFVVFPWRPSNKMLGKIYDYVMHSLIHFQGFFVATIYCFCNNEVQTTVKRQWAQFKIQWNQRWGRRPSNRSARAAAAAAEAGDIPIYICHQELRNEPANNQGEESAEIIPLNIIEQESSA
T1 sequence (O60896 24-148 partner): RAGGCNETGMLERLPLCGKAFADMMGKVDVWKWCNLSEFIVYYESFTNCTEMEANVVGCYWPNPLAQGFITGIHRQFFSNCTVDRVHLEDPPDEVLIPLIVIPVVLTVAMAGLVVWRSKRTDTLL

[2] = target: T2, human calcitonin receptor (Homo sapiens, UniProt P30988); experiment: Assay (II)a functional CRE-luciferase assay, human calcitonin receptor; format: cell-based
T2 construct: expressed in transfected cells; host or cells: BHK570
T2 sequence (P30988 25-474): T1 sequence (P30988 25-474)

[3] = Assay (III) ThT fibrillation assay for physical stability; format: physicochemical
Procedure, shortened: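 Freshly prepared formulations, pH-adjusted, with 1 μM ThT; four or eight replicates incubated at 37 °C under 960 rpm orbital shaking. Fluorescence (ex 444/em 485 nm) read every 20 min; […]. Peptide concentration measured by RP-HPLC before and after the run.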

[4] = Assay (IV) determination of solubility; format: physicochemical
Procedure, shortened: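 Polypeptide in water (~500 nmol/ml) mixed 1:1 with 100 mM glycylglycine (pH 3.0–5.0) or bistrispropane (pH 6.0–8.0) buffers. Held 18 hours at room temperature, then centrifuged. Polypeptide remaining in solution quantified by HPLC.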

[5] = Table 7, human calcitonin (CTa) receptor
[6] = bistrispropane buffer, pH 6, pH 6.0, read-out: Solubility pH 6.0
[7] = bistrispropane buffer, pH 6.5, pH 6.5, read-out: Solubility pH 6.5
[8] = bistrispropane buffer, pH 7, pH 7.0, 18 hours at room temperature, Table 3, read-out: Solubility pH 7.0
[9] = bistrispropane buffer, pH 7, pH 7.0, Table 8, read-out: Solubility pH 7.0
[10] = bistrispropane buffer, pH 7, pH 7.0, Table 9, read-out: Solubility pH 7.0
[11] = bistrispropane buffer, pH 7, pH 7.0, read-out: Solubility pH 7.0
[12] = bistrispropane buffer, pH 7.5, pH 7.5, Table 9, read-out: Solubility pH 7.5
[13] = bistrispropane buffer, pH 7.5, pH 7.5, read-out: Solubility pH 7.5
[14] = bistrispropane buffer, pH 8, pH 8.0, read-out: Solubility pH 8.0
[15] = glycylglycine buffer, pH 3, pH 3.0, read-out: Solubility pH 3.0
[16] = glycylglycine buffer, pH 4, pH 4.0, 18 hours at room temperature, Table 2, read-out: Solubility pH 4.0
[17] = glycylglycine buffer, pH 4, pH 4.0, read-out: Solubility pH 4.0
[18] = glycylglycine buffer, pH 5, pH 5.0, read-out: Solubility pH 5.0

Row | EC50 [1] [pM] | EC50 [2, 5] [pM] | ThT pH 4.0 lag time ([3]; Table 8) [h] | ThT pH 4.0 lag time ([3]; Table 9) [h] | ThT pH 4.0 lag time ([3]; ThT fibrillation assay) [h] | ThT pH 4.0 lag time (h) ([3]; ThT fibrillation assay) | solubility at 18 h [4, 6] [µM] | solubility at 18 h [4, 7] [µM] | solubility at 18 h [4, 8] [µM] | solubility at 18 h [4, 9] [µM] | solubility at 18 h [4, 10] [µM] | solubility at 18 h [4, 11] [µM] | solubility at 18 h [4, 12] [µM] | solubility at 18 h [4, 13] [µM] | solubility at 18 h [4, 14] [µM] | solubility at 18 h [4, 15] [µM] | solubility at 18 h [4, 16] [µM] | solubility at 18 h [4, 17] [µM] | solubility at 18 h [4, 18] [µM] | EC50 ([2]; Table 11, read-out: CTa receptor human EC50) [pM] | Structure (SMILES)
1 | 89.5 | 367 | >45 | >45 | >45 | >45 | > 200 | > 200 | > 200 | > 200 | > 200 | > 200 | > 200 | > 200 | > 200 | > 200 | > 200 | > 200 | > 200 |  | CC[C@H](C)[C@H](NC(=O)[C@@H]1CCCN1C(=O)CNC(=O)[C@H](Cc1ccccc1)NC(=O)[C@H](CC(N)=O)NC(=O)[C@H](CC(N)=O)NC(=O)[C@H](CO)NC(=O)[C@H](CO)NC(=O)[C@H](Cc1c[nH]cn1)NC(=O)[C@H](CCCNC(=N)N)NC(=O)[C@H](CC(C)C)NC(=O)[C@H](Cc1ccccc1)NC(=O)[C@H](CCC(=O)O)NC(=O)[C@H](C)NC(=O)[C@H](CC(C)C)NC(=O)[C@H](CCCNC(=N)N)NC(=O)[C@H](CCC(N)=O)NC(=O)[C@@H](NC(=O)[C@H](C)NC(=O)[C@@H]1CSSC[C@H](NC(=O)[C@H](CCC(=O)O)NC(=O)[C@H](CCCNC(=N)N)NC(=O)[C@H](CCC(=O)O)NC(=O)CC[C@H](NC(=O)CCCCCCCCCCCCCCCCCCC(=O)O)C(=O)O)C(=O)N[C@@H](CC(N)=O)C(=O)N[C@@H]([C@@H](C)O)C(=O)N[C@@H](C)C(=O)N[C@@H]([C@@H](C)O)C(=O)N1)[C@@H](C)O)C(=O)N[C@@H](CC(C)C)C(=O)N1CCC[C@H]1C(=O)N1CCC[C@H]1C(=O)N[C@H](C(=O)N[C@@H](CC(N)=O)C(=O)N[C@H](C(=O)NCC(=O)N[C@@H](CO)C(=O)N[C@@H](CC(N)=O)C(=O)N[C@H](C(=O)N1CCC[C@H]1C(N)=O)[C@@H](C)O)C(C)C)[C@@H](C)O [Example 124, N-alpha-[(S)-4-Carboxy-4-(19-carboxynonadecanoylamino)butyryl]-Glu-Arg-[Glu1,Glu14,Arg17,Pro37]-pramlintide] ({C20 diacid-γGlu}-ERECNTATCATQRLAEFLRHSSNNFGPILPPTNVGSNTP-NH2; disulfide 4-9 (inferred))
2 | 1710 |  | >45 | >45 | >45 | >45 | > 200 | > 200 | > 200 | > 200 | > 200 | > 200 | > 200 | > 200 | > 200 | > 200 | > 200 | > 200 | > 200 | 3570 | CC[C@H](C)[C@H](NC(=O)[C@@H]1CCCN1C(=O)CNC(=O)[C@H](Cc1ccccc1)NC(=O)[C@H](CCC(N)=O)NC(=O)[C@H](CCC(N)=O)NC(=O)[C@H](CO)NC(=O)[C@H](CO)NC(=O)[C@H](Cc1c[nH]cn1)NC(=O)[C@H](CCCNC(=N)N)NC(=O)[C@H](CC(C)C)NC(=O)[C@H](Cc1ccccc1)NC(=O)[C@H](CCC(=O)O)NC(=O)[C@H](C)NC(=O)[C@H](CC(C)C)NC(=O)[C@H](CCCNC(=N)N)NC(=O)[C@H](CCC(N)=O)NC(=O)[C@@H](NC(=O)[C@H](C)NC(=O)[C@@H]1CSSC[C@H](NC(=O)[C@H](CCC(=O)O)NC(=O)[C@H](CCCNC(=N)N)NC(=O)[C@H](CCC(=O)O)NC(=O)CC[C@H](NC(=O)CCCCCCCCCCCCCCCCCCC(=O)O)C(=O)O)C(=O)N[C@@H](CC(N)=O)C(=O)N[C@@H]([C@@H](C)O)C(=O)N[C@@H](C)C(=O)N[C@@H]([C@@H](C)O)C(=O)N1)[C@@H](C)O)C(=O)N[C@@H](CC(C)C)C(=O)N1CCC[C@H]1C(=O)N1CCC[C@H]1C(=O)N[C@H](C(=O)N[C@@H](CCC(N)=O)C(=O)N[C@H](C(=O)NCC(=O)N[C@@H](CO)C(=O)N[C@@H](CCC(N)=O)C(=O)N[C@H](C(=O)N1CCC[C@H]1C(N)=O)[C@@H](C)O)C(C)C)[C@@H](C)O [Example 164, N-alpha-[(S)-4-Carboxy-4-(19-carboxynonadecanoylamino)butyryl]-Glu-Arg-[Glu1,Glu14,Arg17,Gln21,Gln22,Gln31,Gln35,Pro37]-pramlintide] ({C20 diacid-γGlu}-ERECNTATCATQRLAEFLRHSSQQFGPILPPTQVGSQTP-NH2; disulfide 4-9 (inferred))
3 | 391 | 248 |  |  |  | 24 | > 200 | 194 (≈ 897 µg/mL) | > 200 |  |  | > 200 |  | > 200 | > 200 | > 200 | > 200 | > 200 | > 200 |  | CC[C@H](C)[C@H](NC(=O)[C@@H]1CCCN1C(=O)CNC(=O)[C@H](Cc1ccccc1)NC(=O)[C@H](CC(N)=O)NC(=O)[C@H](CCC(N)=O)NC(=O)[C@H](CO)NC(=O)[C@H](CO)NC(=O)[C@H](Cc1c[nH]cn1)NC(=O)[C@H](Cc1c[nH]cn1)NC(=O)[C@H](CC(C)C)NC(=O)[C@H](Cc1ccccc1)NC(=O)[C@H](CCC(=O)O)NC(=O)[C@H](C)NC(=O)[C@H](CC(C)C)NC(=O)[C@H](CCCNC(=N)N)NC(=O)[C@H](CCC(N)=O)NC(=O)[C@@H](NC(=O)[C@H](C)NC(=O)[C@@H]1CSSC[C@H](NC(=O)[C@H](CCCCN)NC(=O)[C@H](CCC(=O)O)NC(=O)CC[C@H](NC(=O)CCCCCCCCCCCCCCCCCCC(=O)O)C(=O)O)C(=O)N[C@@H](CC(N)=O)C(=O)N[C@@H]([C@@H](C)O)C(=O)N[C@@H](C)C(=O)N[C@@H]([C@@H](C)O)C(=O)N1)[C@@H](C)O)C(=O)N[C@@H](CC(C)C)C(=O)N1CCC[C@H]1C(=O)N1CCC[C@H]1C(=O)N[C@H](C(=O)N[C@@H](CC(N)=O)C(=O)N[C@H](C(=O)NCC(=O)N[C@@H](CO)C(=O)N[C@@H](Cc1c[nH]cn1)C(=O)N[C@H](C(=O)N[C@@H](Cc1ccc(O)cc1)C(N)=O)[C@@H](C)O)C(C)C)[C@@H](C)O [Example 129, N-alpha-[(S)-4-Carboxy-4-(19-carboxynonadecanoylamino)butyryl]-Glu-[Glu14,His17,Gln21,His35]-pramlintide] ({C20 diacid-γGlu}-EKCNTATCATQRLAEFLHHSSQNFGPILPPTNVGSHTY-NH2; disulfide 3-8 (inferred); C-terminus assumed)
